The subject of test [1] is differentiated L6-myotubes. Description: Glucose uptake screen (Biological example 1 of WO 2019/053427). The settings on record: compound at 10 μM, activity relative to isoproterenol at 10 μM, read-out: Biological example 1 of WO 2019/053427 (GU). The class given is cell-based. The method, boiled down:
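Uptake was read out as ^3H-2-deoxyglucose (50 nM, 10 min) radioactivity in NaOH lysates. Beforehand, overnight-starved, differentiated L6 myotubes received compound at 1×10^−5 M with ICI-118551 present for 1 h 40 min, followed by fresh agonist for a further 20 min in glucose-free medium.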

The test system of test [2] is differentiated L6-myotubes. Nature of the test: cAMP production relative to isoprenaline (Biological example 2 of WO 2019/053427). The settings on record: 0.25 h, compound at 10 μM, activity relative to isoproterenol at 10 μM. The class given is cell-based. The method in brief:
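Values are cAMP levels relative to isoprenaline at equal concentration (final 1×10^−5 M for both). Stimulation lasted 15 min in differentiated L6 myotubes, using HBSS buffer (pH 7.4) containing 1 mM IBMX, 5 mM HEPES and 1% BSA.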
Background: cAMP levels reflect the balance of adenylyl cyclase and phosphodiesterase activity.

Consider `CO[C@H]1CC[C@H](CCC(C)(C)NC[C@H](O)c2cccc(F)c2)CC1` [Compound 265, (R)-2-{1,1-dimethyl-3-[(1r,4S)-4-methoxycyclohexyl]propyl-amino}-1-(m-fluorophenyl)-1-ethanol], for which the Emax at 10 µM in test [1] is 50 to 75%; in test [2], less than 25%.
With `CO[C@H]1CC[C@@H](CCC(C)(C)NC[C@H](O)c2cncc(F)c2)CC1` [Compound 266], the figures for the Emax at 10 µM in test [1] and in test [2] were greater than 75% and less than 25%, respectively.
`CO[C@H]1CC[C@H](CCC(C)(C)NC[C@H](O)c2cncc(F)c2)CC1` [Compound 267, (R)-2-{1,1-dimethyl-3-[(1r,4S)-4-methoxycyclohexyl]propyl-amino}-1-(5-fluoro-3-pyrdiyl)-1-ethanol]: the values for the Emax at 10 µM in test [1] and in test [2] were 25 to 50% and less than 25%, respectively.
Regarding `O[C@@H](CNC[C@H]1CC[C@@H](O)CC1)c1cccc(F)c1` [Compound 268, (R)-1-(m-fluorophenyl)-2-({[(1s,4S)-4-hydroxycyclohexyl]meth-yl}amino)-1-ethanol], the values for the Emax at 10 µM in test [1] and in test [2] were 25 to 50% and less than 25%, respectively.
In the case of `O[C@@H](CNC[C@H]1CC[C@@H](O)CC1)c1cncc(F)c1` [Compound 269, (R)-1-(5-fluoro-3-pyridyl)-2-({[(1s,4S)-4-hydroxycyclohexyl]meth-yl}amno)-1-ethanol], the results for the Emax at 10 µM in test [1] and in test [2] were 25 to 50% and less than 25%, respectively.
Consider `CO[C@H]1CCC[C@@H](C(C)(C)NC[C@H](O)c2cncc(F)c2)C1` [Compound 270, (R)-2-{1-[(1R,3S)-3-methoxycyclohexyl]-1-methylethylamino}-1-(5-fluoro-3-pyridyl)-1-ethanol], for which the Emax at 10 µM in test [1] was greater than 75%; in test [2], 50 to 75%.
As to `O[C@@H](CNC[C@H]1CC[C@H](OCc2ccccc2)CC1)c1cccc(F)c1` [Compound 271, (R)-1-(m-fluorophenyl)-2-({[(1r,4R)-4-(benzyloxy)cyclohexyl]methyl}amino)-1-ethanol], the Emax at 10 µM in test [1] is 25 to 50%; in test [2], less than 25%.
The corresponding values for `O[C@@H](CNC[C@H]1CC[C@H](O)CC1)c1cccc(F)c1` [Compound 272, (R)-1-(m-fluorophenyl)-2-({[(1r,4R)-4-hydroxycycloehxyl]meth-yl}amino)-1-ethanol] are 25 to 50% and less than 25%.
Turning to `O[C@@H](CNC[C@H]1CC[C@H](OCc2ccccc2)CC1)c1cncc(F)c1` [Compound 273, (R)-1-(5-fluoro-3-pyrdiyl)-2-({[(1r,4R)-4-(benzyloxy)cyclohexyl]methyl}amino)-1-ethanol], the Emax at 10 µM was 25 to 50% in test [1] and less than 25% in test [2].
As to `O[C@@H](CNC[C@H]1CC[C@H](O)CC1)c1cncc(F)c1` [Compound 274, (R)-1-(5-fluoro-3-pyridyl)-2-({[(1r,4R)-4-hydroxycyclohexyl]meth-yl}amino)-1-ethanol], the Emax at 10 µM in test [1] and in test [2] was less than 25% in each case.
For `O[C@@H](CNCCC[C@H]1CC[C@@H](OCc2ccccc2)CC1)c1cncc(F)c1` [Compound 275, (R)-1-(5-fluoro-3-pyridyl)-2-{3-[(1s,4R)-4-(benzyloxy)cyclohexyl]pro-pylamino}-1-ethanol], the Emax at 10 µM in test [1] is 50 to 75%; in test [2], less than 25%.
The corresponding values for `O[C@@H](CNCCC[C@H]1CC[C@H](OCc2ccccc2)CC1)c1cncc(F)c1` [Compound 276, (R)-1-(5-fluoro-3-pyridyl)-2-{3-[(1r,4S)-4-(benzyloxy)cyclohexyl]pro-pylamino}-1-ethanol] are 25 to 50% and less than 25%.
On to `O[C@@H](CNCCC[C@H]1CC[C@@H](OCc2ccccc2)CC1)c1cccc(F)c1` [Compound 277, (R)-1-(m-fluorophenyl)-2-{3-[(1s,4R)-4-(benzyloxy)cyclohexyl]pro-pylamino}-1-ethanol], for which the values for the Emax at 10 µM in test [1] and in test [2] were 25 to 50% and less than 25%, respectively.

Source of the values: patent US20260256751A1, “COMBINATION OF BETA-2-ADRENERGIC RECEPTOR AGONISTS AND GLP-1 RECEPTOR AGONISTS FOR USE IN TREATING HYPERGLYCAEMIA” (ATROGI AB, priority 2023, published 2026).
